According to doi:10.1101/2025.11.20.689572v1 (biorxiv, 2025):
Read-outs that look alike come from different tables or passages of the source.

How the values were obtained:
HRH3 = HRH3 (Homo sapiens, UniProt Q9Y5N1); test: cell-based; parameters: PRESTO-Tango beta-arrestin2 recruitment, luciferase luminescence, concentration-response; details: HTLA, Assay=Tango, agonist mode, % of control agonist
Procedure: (§1) Off-target agonism across the human GPCRome was profiled using PRESTO-Tango, following established protocols with minor adaptations [10]–[12]. […] After ~6 h recovery, cells were transfected with 20 ng plasmid DNA per well and incubated overnight. The next day, 10 µL of test compound (prepared in DMEM + 1% dFBS) was added, and plates were incubated overnight. Media and compounds were removed, and 20 µL per well of Bright-Glo luciferase reagent diluted in assay buffer (Hank’s Balanced Salt Solution (HBSS), 20 mM HEPES, pH 7.4) was added. After 20 min at room temperature (dark), luminescence was recorded. Each plate included the dopamine D2 receptor (DRD2) stimulated with 100 nM quinpirole as a positive control. For the GPCRome screen, each receptor was tested in quadruplicate at 0 and 10 µM compound (final). Responses were expressed as fold change relative to the basal (0 µM) condition. Follow-up concentration–response assays were performed under identical conditions except that serial dilutions of compounds (maximum ~30 µM, final) were added to generate full concentration–response curves.

CHRM2 = target: T1, CHRM2 (Homo sapiens, UniProt P08172); test: cell-based; parameters: PRESTO-Tango beta-arrestin2 recruitment, luciferase luminescence, concentration-response; details: HTLA, Assay=Tango, agonist mode, % of control agonist
T1 sequence (P08172 1-466): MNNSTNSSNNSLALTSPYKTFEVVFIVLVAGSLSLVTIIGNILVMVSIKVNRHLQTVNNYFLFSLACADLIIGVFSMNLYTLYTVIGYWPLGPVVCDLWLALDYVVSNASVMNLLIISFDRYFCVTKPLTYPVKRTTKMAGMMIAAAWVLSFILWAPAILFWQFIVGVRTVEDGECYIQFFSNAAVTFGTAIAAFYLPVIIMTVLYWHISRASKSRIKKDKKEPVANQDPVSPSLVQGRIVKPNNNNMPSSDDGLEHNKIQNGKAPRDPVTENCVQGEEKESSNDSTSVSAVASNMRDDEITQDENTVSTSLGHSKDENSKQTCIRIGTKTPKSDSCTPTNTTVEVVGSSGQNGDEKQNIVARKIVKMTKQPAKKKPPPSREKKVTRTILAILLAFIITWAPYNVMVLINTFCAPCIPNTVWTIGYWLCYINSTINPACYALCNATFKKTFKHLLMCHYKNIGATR
Procedure: as §1

CHRM1 = target: T2, CHRM1 (Homo sapiens, UniProt P11229); test: cell-based; parameters: PRESTO-Tango beta-arrestin2 recruitment, luciferase luminescence, concentration-response; details: HTLA, Assay=Tango, agonist mode, % of control agonist
T2 sequence (P11229 1-460): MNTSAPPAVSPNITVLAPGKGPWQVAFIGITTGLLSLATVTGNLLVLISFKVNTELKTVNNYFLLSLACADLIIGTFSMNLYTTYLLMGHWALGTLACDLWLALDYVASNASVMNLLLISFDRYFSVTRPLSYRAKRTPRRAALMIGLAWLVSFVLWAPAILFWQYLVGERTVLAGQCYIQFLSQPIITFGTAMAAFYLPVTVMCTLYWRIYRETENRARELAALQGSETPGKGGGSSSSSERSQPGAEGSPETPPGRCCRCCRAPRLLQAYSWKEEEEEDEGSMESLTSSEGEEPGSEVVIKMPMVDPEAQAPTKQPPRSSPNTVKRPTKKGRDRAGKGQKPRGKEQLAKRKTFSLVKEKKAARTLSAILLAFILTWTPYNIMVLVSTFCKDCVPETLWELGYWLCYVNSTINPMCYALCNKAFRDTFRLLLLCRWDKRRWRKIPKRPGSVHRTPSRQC
Procedure: as §1

CHRM5 = target: T3, CHRM5 (Homo sapiens, UniProt P08912); test: cell-based; parameters: PRESTO-Tango beta-arrestin2 recruitment, luciferase luminescence, concentration-response; details: HTLA, Assay=Tango, agonist mode, % of control agonist
T3 sequence (P08912 1-532): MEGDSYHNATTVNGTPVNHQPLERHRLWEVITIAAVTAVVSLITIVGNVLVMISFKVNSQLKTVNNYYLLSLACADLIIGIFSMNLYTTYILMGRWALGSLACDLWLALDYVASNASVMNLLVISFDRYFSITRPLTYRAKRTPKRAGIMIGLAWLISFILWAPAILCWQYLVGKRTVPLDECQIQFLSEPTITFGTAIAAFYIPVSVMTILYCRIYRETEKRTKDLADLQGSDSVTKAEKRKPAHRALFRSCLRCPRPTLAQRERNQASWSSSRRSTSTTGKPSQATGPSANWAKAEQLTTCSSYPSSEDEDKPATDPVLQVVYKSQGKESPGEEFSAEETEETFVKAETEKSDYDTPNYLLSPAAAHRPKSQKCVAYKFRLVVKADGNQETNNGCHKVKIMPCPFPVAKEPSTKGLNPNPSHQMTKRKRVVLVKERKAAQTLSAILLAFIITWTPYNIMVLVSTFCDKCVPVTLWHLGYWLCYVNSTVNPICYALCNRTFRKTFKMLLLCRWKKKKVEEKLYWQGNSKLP
Procedure: as §1

HRH4 = HRH4 (Homo sapiens, UniProt Q9H3N8); test: cell-based; parameters: PRESTO-Tango beta-arrestin2 recruitment, luciferase luminescence, concentration-response; details: HTLA, Assay=Tango, agonist mode, % of control agonist
HRH4, sequence (Q9H3N8 whole entry): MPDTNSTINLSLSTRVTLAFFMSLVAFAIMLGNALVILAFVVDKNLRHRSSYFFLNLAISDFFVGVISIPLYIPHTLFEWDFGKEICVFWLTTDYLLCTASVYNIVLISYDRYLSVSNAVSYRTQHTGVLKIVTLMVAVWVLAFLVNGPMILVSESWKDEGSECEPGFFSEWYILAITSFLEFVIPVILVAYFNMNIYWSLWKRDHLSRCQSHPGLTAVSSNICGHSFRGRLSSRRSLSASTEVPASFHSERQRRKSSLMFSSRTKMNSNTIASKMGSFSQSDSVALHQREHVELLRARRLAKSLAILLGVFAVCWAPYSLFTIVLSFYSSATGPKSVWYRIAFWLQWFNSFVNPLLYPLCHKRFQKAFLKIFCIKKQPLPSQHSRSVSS
Procedure: as §1

CHRM3 = CHRM3 (Homo sapiens, UniProt P20309); test: cell-based; parameters: PRESTO-Tango beta-arrestin2 recruitment, luciferase luminescence, concentration-response; details: HTLA, Assay=Tango, agonist mode, % of control agonist
CHRM3, sequence (P20309 whole entry): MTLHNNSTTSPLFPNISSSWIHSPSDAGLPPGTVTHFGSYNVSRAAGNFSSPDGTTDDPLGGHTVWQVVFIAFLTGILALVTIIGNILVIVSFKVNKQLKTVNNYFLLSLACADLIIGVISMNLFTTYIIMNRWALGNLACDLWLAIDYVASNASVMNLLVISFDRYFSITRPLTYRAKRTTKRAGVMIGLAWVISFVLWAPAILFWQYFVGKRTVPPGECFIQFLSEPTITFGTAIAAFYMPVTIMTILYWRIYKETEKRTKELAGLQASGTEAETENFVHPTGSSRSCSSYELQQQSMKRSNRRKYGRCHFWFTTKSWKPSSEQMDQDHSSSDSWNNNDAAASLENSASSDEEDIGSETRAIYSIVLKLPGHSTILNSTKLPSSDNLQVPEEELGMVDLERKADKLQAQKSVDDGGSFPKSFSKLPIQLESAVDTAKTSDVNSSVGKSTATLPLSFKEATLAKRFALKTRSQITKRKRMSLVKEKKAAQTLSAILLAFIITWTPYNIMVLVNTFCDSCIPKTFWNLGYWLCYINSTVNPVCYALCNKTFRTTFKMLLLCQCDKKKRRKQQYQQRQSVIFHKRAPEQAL
Procedure: as §1

HTR1D = HTR1D (Homo sapiens, UniProt P28221); test: cell-based; parameters: PRESTO-Tango beta-arrestin2 recruitment, luciferase luminescence, concentration-response; details: HTLA, Assay=Tango, agonist mode, % of control agonist
HTR1D, sequence (P28221 whole entry): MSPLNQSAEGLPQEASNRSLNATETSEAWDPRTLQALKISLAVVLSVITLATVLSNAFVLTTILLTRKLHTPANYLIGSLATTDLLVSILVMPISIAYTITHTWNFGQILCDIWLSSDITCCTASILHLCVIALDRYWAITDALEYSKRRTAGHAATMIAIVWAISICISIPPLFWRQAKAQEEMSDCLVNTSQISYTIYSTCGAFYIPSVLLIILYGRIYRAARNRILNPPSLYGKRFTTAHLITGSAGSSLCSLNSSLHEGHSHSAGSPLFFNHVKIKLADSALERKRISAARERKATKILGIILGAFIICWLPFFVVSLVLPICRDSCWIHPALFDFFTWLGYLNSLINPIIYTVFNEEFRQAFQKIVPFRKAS
Procedure: as §1

M5 = target: T4, M5 (Homo sapiens, UniProt P08912); test: TRUPATH BRET2 G protein dissociation, HEK293; assay type: cell-based; details: HBSS, […] HEPES pH […] °C; agonist mode
T4 construct: gene CHRM5; full-length receptor; HEK293 with TRUPATH sensors (function)
T4 sequence (P08912 1-532): T3 sequence (P08912 1-532)

[1] = read-out: N-Desmethyl Xanomeline

HRH3, sequence (Q9Y5N1 whole entry): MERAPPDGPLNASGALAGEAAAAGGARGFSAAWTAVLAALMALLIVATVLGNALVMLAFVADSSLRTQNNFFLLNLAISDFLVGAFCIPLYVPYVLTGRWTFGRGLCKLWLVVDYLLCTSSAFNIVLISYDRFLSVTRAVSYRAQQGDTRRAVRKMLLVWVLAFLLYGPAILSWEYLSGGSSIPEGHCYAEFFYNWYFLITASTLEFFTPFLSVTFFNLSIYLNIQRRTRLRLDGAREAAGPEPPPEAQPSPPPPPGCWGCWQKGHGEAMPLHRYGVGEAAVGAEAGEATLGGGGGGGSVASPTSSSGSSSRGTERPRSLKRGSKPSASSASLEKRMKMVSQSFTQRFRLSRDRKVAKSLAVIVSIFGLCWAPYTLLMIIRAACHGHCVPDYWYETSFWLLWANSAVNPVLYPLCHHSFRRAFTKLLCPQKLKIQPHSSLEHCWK

SMILES	Emax (HRH3; read-out: Xanomeline) [%]	Emax (CHRM2; read-out: Xanomeline) [%]	Emax (CHRM1; read-out: Xanomeline) [%]	Emax (CHRM5; read-out: Xanomeline) [%]	Emax (HRH4; read-out: Xanomeline) [%]	Emax (CHRM3; read-out: Xanomeline) [%]	Emax (HTR1D; read-out: Xanomeline) [%]	EC50 (M5)	Emax (HRH3; [1]) [%]	Emax (CHRM2; [1]) [%]	Emax (CHRM1; [1]) [%]	Emax (CHRM5; [1]) [%]	Emax (HRH4; [1]) [%]	Emax (CHRM3; [1]) [%]	Emax (HTR1D; [1]) [%]
CCCCCCOc1nsnc1C1=CCCN(C)C1 [Xanomeline]	2.89	45.5	67	70.1	37.3	42.8	73.3	differential activation of M1-M5 muscarinic receptor transducers	–	–	–	–	–	–	–
CCCCCCOc1nsnc1C1=CCCNC1 [N-desmethylxanomeline]	–	–	–	–	–	–	–	differential activation of M1-M5 muscarinic receptor transducers	16.8	42.6	28.4	48.2	10.4	32.1	51.2
